Here are results for 16 compounds from patent US20050033050A1, “Phthalazinones and the use thereof in order to combat undesirable microorganisms” (priority 2001, published 2005).

Read-outs that look alike come from different tables or passages of the source.

Data set [1] in a line: logP by HPLC (EEC directive 79/831 Annex V.A8, gradient method). It is filed as physicochemical. The note with it: for logP*: compounds of formula (IV), Table 2; for log P*: Table 1.
For data set [2], the system named is Erysiphe graminis fsp. tritici. Nature of the data set: Erysiphe test (wheat)/protective. In kind it is in vivo. The note with it: protective, application rate 500 g/ha, evaluation 7 days after inoculation, 100% = no infection. On the procedure: To produce a suitable preparation of active compound, I part by weight of active compound is mixed with the stated amounts of solvent and emulsifier, and the concentrate is diluted with water to the desired concentration.
To test for protective activity, young plants are sprayed with the preparation of active compound at the stated application rate.
After the spray coating has dried on, the plants are dusted with spores of Erysiphe graminis fsp. tritici.
(§1) The plants are placed in a greenhouse at a temperature of about 20° C. and a relative atmospheric humidity of about 80% to promote the development of mildew pustules.
(§2) Evaluation is carried out 7 days after the inoculation. 0% means an efficacy which corresponds to that of the control, whereas an efficacy of 100% means that no infection is observed.

The subject of data set [3] is Erysiphe graminis f.sp. hordei. The data set can be described thus: Erysiphe test (cucumber)/protective. It is filed as in vivo. The following applies: protective, application rate 500 g/ha, evaluation 7 days after inoculation; 100% = no infection. On the procedure:
To produce a suitable preparation of active compound, 1 part by weight of active compound is mixed with the stated amounts of solvent and emulsifier, and the concentrate is diluted with water to the desired concentration. To test for protective activity, young plants are sprayed with the preparation of active
compound at the stated application rate.
After the spray coating has dried on, the plants are dusted with spores of Erysiphe graminis f.sp. hordei.
as §1, §2

Setting [4] is: gradient method, acetonitrile/0.1% aqueous phosphoric acid.
The mark [5] stands for this setting: gradient method, acetonitrile/0.1% aqueous phosphoric acid, compounds of formula (I), Table 1, read-out: log P*.
Setting [6] is: preparation example, read-out: HPLC: logP.
[7] abbreviates: gradient method, acetonitrile/0.1% aqueous phosphoric acid, compounds of formula (I).

With `CCCOc1n[nH]c(=O)c2cc(Br)ccc12` [(IV-2)], the “logP*” value in data set [1] (setting [4]) is listed as 2.66. The same measure, in the same setting: with `CCCOc1n[nH]c(=O)c2ccc(Br)cc12` [(IV-3)] the figure was 2.71; with `CCC(C)Oc1n[nH]c(=O)c2ccc(Br)cc12` (stereo not shown) [(IV-4)], 3.12; with `CCC(C)Oc1n[nH]c(=O)c2cc(Cl)c(Cl)cc12` (stereo not shown) [(IV-5)], 3.62. On the same count and under the same terms, for `CC(C)COc1n[nH]c(=O)c2cc(Cl)c(Cl)cc12` [(IV-6)] the value was 3.64. Regarding `CCCOc1nn(CCC)c(=O)c2cc(Br)ccc12` [Example 1, 7-bromo-4-propoxy-2-propyl-1(2H)-phthalazinone], the chromatographic logP in data set [1] (setting [5]) and in data set [1] (setting [6]) was 4.76 throughout. `CCCOc1nn(CCC(C)C)c(=O)c2ccc(Br)cc12` [Example 2, 6-bromo-2-isopentyl-4-propoxy-1 (2H)-phthalazinone]: the chromatographic logP in data set [1] (setting [5]) and in data set [1] (setting [6]) was 5.91 each time. `CCCOc1nn(CCC)c(=O)c2ccc(Br)cc12` [Example 4] showed an efficacy in data set [2] of 100%. Also, the “log P*” value in data set [1] (setting [7]) is recorded as 4.8. For `CCC(C)Oc1nn(C(C)CC)c(=O)c2cc(Br)ccc12` (stereo not shown) [Example 9], the “log P*” value in data set [1] (setting [7]) is listed as 5.52.

In data set [2], `CCCOc1nn(CCC)c(=O)c2cc(Cl)c(Cl)cc12` [Example 10] registered an efficacy of 100%. Also, the “log P*” value in data set [1] (setting [7]) came to 5.51. For the compound `CCCCOc1nn(CCCC)c(=O)c2cc(Cl)c(Cl)cc12` [Example 11], the efficacy in data set [2] and in data set [3] was 100% each time. For the same compound, in data set [1] (setting [7]), the “log P*” value came to 6.71. Turning to `CCC(C)Oc1nn(C(C)CC)c(=O)c2cc(Cl)c(Cl)cc12` (stereo not shown) [Example 12], the “log P*” value in data set [1] (setting [7]) was found to be 3.62.

`CC(C)COc1nn(CC(C)C)c(=O)c2cc(Cl)c(Cl)cc12` [Example 13]: the “log P*” value in data set [1] (setting [7]) is on record as 6.46. Same read-out and setting: with `CCCOc1cc2c(OCCC)nn(CCC)c(=O)c2cc1F` [Example 15] the figure was 4.82.

`CCCOc1cc2c(=O)n(CCC)nc(OCCC)c2cc1F` [Example 16]: in data set [1] (setting [7]), the “log P*” value is 5.26. On to `CCC(C)Oc1n[nH]c(=O)c2cc(Br)ccc12` (stereo not shown) [Example (IV-1), 7-bromo-4-sec-butoxy-1 (2H)-phthalazinone], for which, in data set [1] (setting [6]), the chromatographic logP worked out at 3.01.
